Target: MAGE-A11:PCF11 (Homo sapiens (Human), UniProt P43364)
Assay: TR-FRET single point screening at 15 μM
Type: binding
Set-up: unit not given here
Description: TR-FRET Assays and High-throughput Screen. Terbium-anti-GST antibody, 1 M Tris pH 7.5 1 M MgCl2 and 1 M DTT were purchased from Invitrogen (Carlsbad, CA), BSA was purchased from Sigma (St. Louis, MO). Dimethyl sulfoxide (DMSO) was purchased from Fisher Scientific (Pittsburgh, PA). Black 384-well low volume plates and 384-well polypropylene compound plates were purchased from Corning Incorporated (Tewksbury, MA). The St. Jude FDA drug and Bioactive library (11,293 chemicals), Drug-like library (10,073 chemicals) and Lead-like library (10,041 chemicals) were custom assembled and purchased from commercial sources including Sigma, Microsource (Gaylordsville, CT), selleckchem (Houston, TX), ChemDiv (San Diego, CA), ChemBridge (San Diego, CA), Enamine (Monmouth Jct., NJ), and Life Chemicals (Niagara-on-the-Lake, ON, Canada). They were arrayed (10 mM in DMSO) in 384-well polypropylene compound plates with columns 1, 2, 13 and 14 empty which were reserved for controls.
The TR-FRET assay buffer with a formula of 50 mM Tris pH 7.5, 20 mM MgCl2, 0.1 mg/ml BSA and 1 mM DTT was freshly prepared before each experiment. All TR-FRET assays were performed in black 384-well plates with 20 μl/well assay volume in the TR-FRET assay buffer at room temperature (approximately 25° C.). All peptides or compounds were solubilized in DMSO. To test the competitive activity of peptides or compounds against the interaction between GST-MAGEA11 MHD and FAM-PCF11_4 peptide, 10 μl/well peptide or compound at specified concentration was dispensed into a black 384-well low volume plate, followed by 5 μl/well FAM-PCF11_4 (800 nM), 5 μl/well Tb-anti-GST (20 nM) and GST-MAGEA11 MHD (20 nM). The assay components in each well was then mixed by shaking the plate on an IKA MTS 2/4 digital microtiter plate shaker (IKA Works; Wilmington, NC, USA) at 900 RPM for 1 minute. The plate was further centrifuged in an Eppendorf 5810 centrifuge with an A-4-62 swing-bucket rotor (Eppendorf AG, Hamburg, Germany) at 201 g (1000 rpm) for 30 seconds. The plate was then incubated for 90 min with a lid to avoid light exposure to the assay components. After incubation, the fluorescent emission signals at 520 nm and 490 nm channels of individual wells were measured with a PHERAstar FS plate reader (BMG Labtech; Durham, NC, USA) by using a 340 nm excitation filter, 100 μs delay time, and 200 μs integration time. The TR-FRET fluorescence emission ratio (TR-FRET signal) for each well was presented as 10 000×520 nm/490 nm, which was used directly for curve fitting, or further converted to % Inhibition based on the respective positive and negative controls. The graphic software GraphPad Prism 4.81 (GraphPad Software; La Jolla, CA, USA) was used to generate curves and derive IC50 values of tested peptides or compounds, if applicable.
TR-FRET screen for identifying MAGEA11 small molecule inhibitors was performed as follows. The primary one-concentration screening and subsequent 10 or 20-concentration dose response tests were accomplished with an automated High Throughput Screening system (HighRes Biosolutions, Beverly, MA)^30. In the primary screening, 15 μl/well FAM-PCF11_4 (267 nM) was first dispensed with a Multidrop Combi Reagent Dispenser (Thermo Fisher Scientific, Waltham, MA) to black 384-well low volume assay plates. The plates were spun down with a Velocity11 VSpin microplate centrifuge (Agilent Technologies, Santa Clara, CA). 30 nl/well of 10 mM compound/DMSO solutions, or DMSO alone, were transferred from compound plates (the St. Jude FDA drug and bioactive library, Drug-like library and Lead-like library) or a control plate to the assay plates with a Pin Tool (V&P Scientific, San Diego, CA). The compounds were arrayed in columns 3 to 12 and columns 15 to 24 of compound plates. The controls were arrayed in columns 1, 2, 13 and 14 of a compound plate. […]

[1] = single point TR-FRET screening of quinoline compounds against MAGE-A11:PCF11, 15 μM
[2] = single point TR-FRET screening at 15 μM against MAGE-A11:PCF11

Chain of MAGE-A11:PCF11 (P43364 218-429): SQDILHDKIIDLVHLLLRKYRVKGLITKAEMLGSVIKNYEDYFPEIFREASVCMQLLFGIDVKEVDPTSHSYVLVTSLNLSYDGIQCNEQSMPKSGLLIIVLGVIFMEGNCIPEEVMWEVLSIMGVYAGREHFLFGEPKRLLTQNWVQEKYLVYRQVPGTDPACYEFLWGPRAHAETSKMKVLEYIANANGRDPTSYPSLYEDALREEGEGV

CCOC(=O)c1cnc2c(C(F)(F)F)cccc2c1NCCCN1CCOCC1 [SJ000131358]
TR-FRET signal [1]: 10.06

CCOC(=O)c1cnc2c(C)c(C)ccc2c1NCCN(C)C [SJ000134078]
TR-FRET signal [2]: 8.538

CCOC(=O)c1cnc2c(Cl)cccc2c1NCCN1CCOCC1 [SJ000163436]
TR-FRET signal [2]: −6.529

CCOC(=O)c1cnc2c(C)cc(C)cc2c1NCCN1CCOCC1 [SJ000172983]
TR-FRET signal [2]: 8.869

CCOC(=O)c1cnc2c(C)cc(C)cc2c1NCCCN1CCOCC1 [SJ000173725]
TR-FRET signal [1]: 6.494

CCOC(=O)c1cnc2c(C)cc(Cl)cc2c1NCCCN1CCOCC1 [SJ000174094]
TR-FRET signal [1]: −10.52

CCOC(=O)c1cnc2c(Cl)cc(Cl)cc2c1NCCN1CCOCC1 [SJ000175864]
TR-FRET signal [2]: −13.06

CCOC(=O)c1cnc2c(Cl)cc(Cl)cc2c1NCCCN1CCOCC1 [SJ000176476]
TR-FRET signal [1]: −2.118

CCOC(=O)c1cnc2ccc(Br)cc2c1NCCCN1CCOCC1 [SJ000176507]
TR-FRET signal [1]: −22

CCOC(=O)c1ccc2ncc(C(=O)OCC)c(NCCCN3CCOCC3)c2c1 [SJ000176583]
TR-FRET signal [1]: 11.26

CCOC(=O)c1cnc2c(OC)cccc2c1NCCCN1CCOCC1 [SJ000180455]
TR-FRET signal [1]: 3.635

CCOC(=O)c1cnc2c(C(=O)OC)cccc2c1NCCN1CCOCC1 [SJ000184799]
TR-FRET signal [2]: 4.043

CCOC(=O)c1cnc2c(CC)cccc2c1NCCCN1CCOCC1 [SJ000185196]
TR-FRET signal [1]: −4.499

CCOC(=O)c1cnc2ccc(Cl)cc2c1N1CCN(C)CC1 [SJ000187322]
TR-FRET signal [2]: −0.9277

Cc1ccc(S(=O)(=O)N2CCN(c3ccnc4cc(Cl)ccc34)CC2)cc1 [SJ000192519]
TR-FRET signal [2]: −38.7

CC(=O)Nc1ccc(S(=O)(=O)N2CCN(c3ccnc4cc(Cl)ccc34)CC2)cc1 [SJ000193862]
TR-FRET signal [2]: −16.19

COc1ccc(S(=O)(=O)N2CCN(c3ccnc4cc(Cl)ccc34)CC2)cc1 [SJ000199955]
TR-FRET signal [2]: −32.07

O=S(=O)(c1ccc(Br)cc1)N1CCN(c2ccnc3cc(Cl)ccc23)CC1 [SJ000201754]
TR-FRET signal [2]: −16.75

O=S(=O)(c1ccc(F)cc1)N1CCN(c2ccnc3cc(Cl)ccc23)CC1 [SJ000203833]
TR-FRET signal [2]: −50.64

O=S(=O)(c1ccc(Cl)cc1)N1CCN(c2ccnc3cc(Cl)ccc23)CC1 [SJ000204656]
TR-FRET signal [2]: −34.39

C=CCOCC(O)CN1CCN(c2cc(C)nc3ccccc23)CC1 (stereo not drawn) [SJ000227652]
TR-FRET signal [2]: −0.207

Cc1cc(N2CCN(CC(O)CO)CC2)c2ccccc2n1 (stereo not drawn) [SJ000227653]
TR-FRET signal [2]: −4.954

Cc1cc(N2CCN(CC(O)COCC(C)C)CC2)c2ccccc2n1 (stereo not drawn) [SJ000227654]
TR-FRET signal [2]: −3.251

C#CCOCC(O)CN1CCN(c2cc(C)nc3ccccc23)CC1 (stereo not drawn) [SJ000227655]
TR-FRET signal [2]: 6.55

C=CCOCC(O)CN1CCN(c2cc(C(F)(F)F)nc3ccccc23)CC1 (stereo not drawn) [SJ000228017]
TR-FRET signal [2]: −2.128

C#CCOCC(O)CN1CCN(c2cc(C(F)(F)F)nc3ccccc23)CC1 (stereo not drawn) [SJ000228018]
TR-FRET signal [2]: −9.516

O=S(=O)(c1ccccc1)c1cnc2ccc(Cl)cc2c1N1CCN(Cc2ccccc2)CC1 [SJ000247242]
TR-FRET signal [2]: −30.28

CCOc1ccc2ncc(C(=O)c3ccc(OC)cc3)c(N3CCN(CC)CC3)c2c1 [SJ000247243]
TR-FRET signal [2]: −9.084

COc1ccc2ncc(C(=O)c3ccccc3)c(N3CCN(C)CC3)c2c1 [SJ000247245]
TR-FRET signal [2]: −2.393

COc1ccc2ncc(S(=O)(=O)c3ccccc3)c(N3CCN(Cc4ccccc4)CC3)c2c1 [SJ000247248]
TR-FRET signal [2]: −71.16

CCOc1ccc2ncc(S(=O)(=O)c3ccccc3)c(N3CCN(Cc4ccccc4)CC3)c2c1 [SJ000247249]
TR-FRET signal [2]: −15.91

CCOc1ccc2ncc(C(=O)c3ccc(C)cc3)c(N3CCN(C)CC3)c2c1 [SJ000247254]
TR-FRET signal [2]: −10.61

Cc1ccc2ncc(S(=O)(=O)c3ccccc3)c(N3CCN(Cc4ccccc4)CC3)c2c1 [SJ000247256]
TR-FRET signal [2]: 2.673

O=S(=O)(c1ccccc1)c1cnc2ccc(F)cc2c1N1CCN(Cc2ccccc2)CC1 [SJ000247257]
TR-FRET signal [2]: −62.28

Cc1ccc(S(=O)(=O)c2cnc3ccccc3c2N2CCN(C)CC2)cc1 [SJ000247268]
TR-FRET signal [2]: −13.59

CCOc1ccc2ncc(C(=O)c3ccc(OC)cc3)c(N3CCN(C)CC3)c2c1 [SJ000247277]
TR-FRET signal [2]: −18.95

CCc1ccc2ncc(C(=O)c3ccccc3)c(N3CCN(CC)CC3)c2c1 [SJ000247281]
TR-FRET signal [2]: −2.261

CCN1CCN(c2c(C(=O)c3ccc(C)cc3)cnc3ccc(OC)cc23)CC1 [SJ000247282]
TR-FRET signal [2]: 3.9

CCOc1ccc2ncc(C(=O)c3ccccc3)c(N3CCN(CC)CC3)c2c1 [SJ000247283]
TR-FRET signal [2]: −0.2733

CCOc1ccc2ncc(C(=O)c3ccc(C)cc3)c(N3CCN(CC)CC3)c2c1 [SJ000247284]
TR-FRET signal [2]: −14.25

CN1CCN(c2c(S(=O)(=O)c3ccc(Cl)cc3)cnc3ccccc23)CC1 [SJ000247306]
TR-FRET signal [2]: −10.14

CCc1ccc2ncc(S(=O)(=O)c3ccc(C)c(C)c3)c(N3CCN(C)CC3)c2c1 [SJ000247332]
TR-FRET signal [2]: 2.973

COc1ccc2ncc(S(=O)(=O)c3ccc(C)c(C)c3)c(N3CCN(C)CC3)c2c1 [SJ000247333]
TR-FRET signal [2]: −8.554

CCc1ccc2ncc(S(=O)(=O)c3ccc(C)c(C)c3)c(N3CCN(CC)CC3)c2c1 [SJ000247334]
TR-FRET signal [2]: −4.712

CCN1CCN(c2c(S(=O)(=O)c3ccc(C)c(C)c3)cnc3ccc(OC)cc23)CC1 [SJ000247335]
TR-FRET signal [2]: −4.579

CN1CCN(c2c(C(=O)c3ccccc3)cnc3ccc(Cl)cc23)CC1 [SJ000247338]
TR-FRET signal [2]: −5.573

CCOc1ccc(C(=O)c2cnc3ccc(C)cc3c2N2CCN(CC)CC2)cc1 [SJ000247339]
TR-FRET signal [2]: −10.81

Cc1ccc(S(=O)(=O)c2cnc3ccc(F)cc3c2N2CCN(C)CC2)cc1C [SJ000247344]
TR-FRET signal [2]: −7.627

CCN1CCN(c2c(S(=O)(=O)c3ccc(C)c(C)c3)cnc3ccc(F)cc23)CC1 [SJ000247345]
TR-FRET signal [2]: 1.118

CCOc1ccc2ncc(S(=O)(=O)c3ccc(C)c(C)c3)c(N3CCN(C)CC3)c2c1 [SJ000247354]
TR-FRET signal [2]: −14.05

CCOc1ccc2ncc(S(=O)(=O)c3ccc(C)c(C)c3)c(N3CCN(CC)CC3)c2c1 [SJ000247355]
TR-FRET signal [2]: −13.39

CCN1CCN(c2c(C(=O)c3ccccc3)cnc3ccc(OC)cc23)CC1 [SJ000247365]
TR-FRET signal [2]: −0.2733

CCN1CCN(c2c(S(=O)(=O)c3ccc(Cl)cc3)cnc3ccccc23)CC1 [SJ000247367]
TR-FRET signal [2]: −2.261

CCc1ccc(S(=O)(=O)c2cnc3ccccc3c2N2CCN(C)CC2)cc1 [SJ000278939]
TR-FRET signal [2]: 11.58

CCOC(=O)c1cnc2c(Cl)cccc2c1NCCCN1CCOCC1 [SJ000279431]
TR-FRET signal [1]: 4.102

CCOC(=O)c1cnc2ccc(OC)cc2c1N1CCN(C)CC1 [SJ000279507]
TR-FRET signal [2]: −2.791

CCOC(=O)c1cnc2ccc(OCC)cc2c1NCCCN1CCOCC1.Cl [SJ000279525]
TR-FRET signal [1]: 5.532

CCOC(=O)c1cnc2ccc(OCC)cc2c1N1CCN(C)CC1 [SJ000279526]
TR-FRET signal [2]: −7.064

CCOC(=O)c1cnc2c(C)cccc2c1NCCCN1CCOCC1 [SJ000279636]
TR-FRET signal [1]: 3.353

CCOC(=O)c1cnc2ccc(C(=O)OC)cc2c1NCCCN1CCOCC1 [SJ000279665]
TR-FRET signal [1]: 10.71

From patent US20240246941A1, “SUBSTITUTED 4-(3-AMINOPROP-1-YL)AMINOQUINOLINE ANALOGS AS MODULATORS OF MELANOMA-ASSOCIATED ANTIGEN 11 UBIQUITIN LIGASE” (ST. JUDE CHILDREN'S RESEARCH HOSPITAL, INC., priority 2020, published 2024)
